According to patent US7138504B2, “Reagents and methods for mycophenolic acid immunoassay” (Microgenics Corporation, priority 2004, dated 2006):

Legend:
[1] = test system: antibody raised against MPAlc; experiment: CEDIA MPA assay specificity (cross-reactivity) in MPA-free plasma; type: binding, goats
Procedure: “Cross reactivity” is determined in a quantitative immunoassay by establishing a standard curve using known dilutions of MPA. The standard curve is then used to calculate the apparent concentration of the interfering substance present in various known amounts in samples assayed under substantially similar conditions. The percent (%) cross-reactivity is the measured concentration divided by the tested concentration multiplied by 100%. […] If MPA is present in the sample, it binds to the antibody, leaving the ED portion of the ED-containing conjugate free to restore enzyme activity upon association with enzyme acceptor (EA) fragments in the assay reaction mixture. The active enzyme is then capable of producing a quantifiable reaction product when exposed to appropriate substrate. If MPA is not present in the sample, the antibody binds to the ED-containing conjugate inhibiting association of the ED fragments with the EA fragments, thus inhibiting restoration of enzyme activity. The amount of reaction product and resultant absorbance change are proportional to the amount of MPA in the specimen. […] (active metabolite), were added to MPA-free plasma for measuring cross-reactivity. The estimated cross-reactivity of each compound was calculated using the formula: (measured concentration-control concentration)×100% concentration tested Additionally, commonly co-prescribed and over-the-counter (OTC) drugs were tested in MPA-free plasma for cross-reactivity in the […] assay.

[2] = test system: inosine-monophosphate dehydrogenase (IMPDH); details: cited from earlier work

## COc1c(C)c2c(c(O)c1C/C=C(\C)CCC(=O)OCCN1CCOCC1)C(=O)OC2 [Mycophenolate mofetil, 2-morpholinoethyl(E)-6-(1,3-dihydro-4-hydroxy-6-methoxy-7-methyl-3-oxo-5-isobenzofuranyl)-4-methyl-4-hexenoate]
[1]; concentration 926 μg/ml
  % Cross-Reactivity: 123%

## COc1c(C)c2c(c(O[C@@H]3O[C@H](C(=O)O)[C@@H](O)[C@H](O)[C@H]3O)c1C/C=C(\C)CCC(=O)O)C(=O)OC2 [7-O-Glucuronide MPA]
[1]; concentration 1000 μg/ml
  % Cross-Reactivity: 0.0%

## COc1c(C)c2c(c(O)c1C/C=C(\C)CCC(=O)O[C@@H]1O[C@H](C(=O)O)[C@@H](O)[C@H](O)[C@H]1O)C(=O)OC2 [Acyl glucuronide MPA]
[1]; concentration 10 μg/ml
  % Cross-Reactivity: 192%
[2]
  inhibition of IMPDH: activity similar to that of MPA

## COc1c(C)c2c(c(O)c1C/C=C(\C)CCC(=O)O)C(=O)OC2 [MPA, Mycophenolic acid]
[2]
  inhibition of IMPDH: potent and specific inhibitor
